Data reported in the NIST ThermoML archive (doi:10.1016/j.jct.2008.01.009).

How the values were obtained:
[1] = Molar enthalpy of transition or fusion; conditions: Crystal 1; Adiabatic calorimetry
[2] = molar heat capacity at saturation pressure
[3] = for vapor or sublimation pressure / mass density: Liquid; for mass density: Vibrating tube method
[4] = molar heat capacity at constant pressure; conditions: 101.33 kPa, Vacuum adiabatic calorimetry

C1=Cc2ccccc2CC1 [1,2-dihydronaphthalene]
Conditions | Molar enthalpy of transition or fusion [kcal/mol]
[1] | 2.5198

Conditions | molar heat capacity [J/K/mol] | molar heat capacity at constant pressure [J/K/mol] | vapor or sublimation pressure [kPa]
[2], 5.476 K, Crystal 3, Vacuum adiabatic calorimetry | 0.37 | – | –
[2], 6.388 K, Crystal 3, Vacuum adiabatic calorimetry | 0.64 | – | –
[2], 7.291 K, Crystal 3, Vacuum adiabatic calorimetry | 0.989 | – | –
[2], 8.25 K, Crystal 3, Vacuum adiabatic calorimetry | 1.48 | – | –
[2], 9.249 K, Crystal 3, Vacuum adiabatic calorimetry | 2.12 | – | –
[2], 10.3 K, Crystal 3, Vacuum adiabatic calorimetry | 2.94 | – | –
[2], 11.47 K, Crystal 3, Vacuum adiabatic calorimetry | 3.91 | – | –
[2], 12.77 K, Crystal 3, Vacuum adiabatic calorimetry | 5.18 | – | –
[2], 14.21 K, Crystal 3, Vacuum adiabatic calorimetry | 6.67 | – | –
[2], 15.81 K, Crystal 3, Vacuum adiabatic calorimetry | 8.431 | – | –
[2], 17.59 K, Crystal 3, Vacuum adiabatic calorimetry | 10.49 | – | –
[2], 19.57 K, Crystal 3, Vacuum adiabatic calorimetry | 12.77 | – | –
[2], 21.76 K, Crystal 3, Vacuum adiabatic calorimetry | 15.28 | – | –
[2], 24.19 K, Crystal 3, Vacuum adiabatic calorimetry | 18 | – | –
[2], 26.87 K, Crystal 3, Vacuum adiabatic calorimetry | 20.93 | – | –
[2], 29.83 K, Crystal 3, Vacuum adiabatic calorimetry | 23.95 | – | –
[2], 33.12 K, Crystal 3, Vacuum adiabatic calorimetry | 27.11 | – | –
[2], 36.82 K, Crystal 3, Vacuum adiabatic calorimetry | 30.48 | – | –
[2], 40.93 K, Crystal 3, Vacuum adiabatic calorimetry | 33.95 | – | –
[2], 45.51 K, Crystal 3, Vacuum adiabatic calorimetry | 37.56 | – | –
[2], 50.62 K, Crystal 3, Vacuum adiabatic calorimetry | 41.31 | – | –
[2], 55.37 K, Crystal 3, Vacuum adiabatic calorimetry | 44.29 | – | –
[2], 56.32 K, Crystal 3, Vacuum adiabatic calorimetry | 44.86 | – | –
[2], 60.82 K, Crystal 3, Vacuum adiabatic calorimetry | 47.66 | – | –
[2], 66.99 K, Crystal 3, Vacuum adiabatic calorimetry | 51.14 | – | –
[2], 73.79 K, Crystal 3, Vacuum adiabatic calorimetry | 54.73 | – | –
[2], 81.31 K, Crystal 3, Vacuum adiabatic calorimetry | 58.53 | – | –
[2], 89.62 K, Crystal 3, Vacuum adiabatic calorimetry | 62.62 | – | –
[2], 92.5 K, Crystal 3, Vacuum adiabatic calorimetry | 64 | – | –
[2], 98.63 K, Crystal 3, Vacuum adiabatic calorimetry | 66.92 | – | –
[2], 101.72 K, Crystal 3, Vacuum adiabatic calorimetry | 68.45 | – | –
[2], 108.13 K, Crystal 3, Vacuum adiabatic calorimetry | 71.57 | – | –
[2], 111.45 K, Crystal 3, Vacuum adiabatic calorimetry | 73.19 | – | –
[2], 116.48 K, Crystal 3, Vacuum adiabatic calorimetry | 75.72 | – | –
[2], 121.2 K, Crystal 3, Vacuum adiabatic calorimetry | 78.05 | – | –
[2], 122.5 K, Crystal 3, Vacuum adiabatic calorimetry | 78.89 | – | –
[2], 127.59 K, Crystal 3, Vacuum adiabatic calorimetry | 81.65 | – | –
[2], 129.07 K, Crystal 3, Vacuum adiabatic calorimetry | 82.45 | – | –
[2], 132.84 K, Crystal 3, Vacuum adiabatic calorimetry | 84.88 | – | –
[2], 138.14 K, Crystal 3, Vacuum adiabatic calorimetry | 89.05 | – | –
[2], 143.36 K, Crystal 3, Vacuum adiabatic calorimetry | 92.96 | – | –
[2], 148.64 K, Crystal 2 | 97.43 | – | –
[2], 153.85 K, Crystal 2 | 100.66 | – | –
[2], 159.03 K, Crystal 2 | 103.99 | – | –
[2], 164.19 K, Crystal 2 | 106.64 | – | –
[2], 169.6 K, Crystal 2 | 109.63 | – | –
[2], 171.24 K, Crystal 2 | 110.54 | – | –
[2], 175.29 K, Crystal 2 | 112.56 | – | –
[2], 178.78 K, Crystal 2 | 114.67 | – | –
[2], 180.37 K, Crystal 2 | 115.57 | – | –
[2], 180.88 K, Crystal 2 | 115.84 | – | –
[2], 186.07 K, Crystal 2 | 118.77 | – | –
[2], 186.76 K, Crystal 2 | 119.11 | – | –
[2], 187.6 K, Crystal 2 | 120.08 | – | –
[2], 192.71 K, Crystal 2 | 124.28 | – | –
[2], 192.99 K, Crystal 2 | 123.59 | – | –
[2], 197.84 K, Crystal 1, Small (less than 1 g) adiabatic calorimetry | 128.42 | – | –
[2], 199.44 K, Crystal 1, Small (less than 1 g) adiabatic calorimetry | 129.23 | – | –
[2], 202.96 K, Crystal 1, Small (less than 1 g) adiabatic calorimetry | 130.85 | – | –
[2], 206.23 K, Crystal 1, Small (less than 1 g) adiabatic calorimetry | 132.6 | – | –
[2], 208.77 K, Crystal 1, Small (less than 1 g) adiabatic calorimetry | 134.08 | – | –
[2], 213.6 K, Crystal 1, Small (less than 1 g) adiabatic calorimetry | 137.01 | – | –
[2], 215.96 K, Crystal 1, Small (less than 1 g) adiabatic calorimetry | 138.43 | – | –
[2], 219.37 K, Crystal 1, Small (less than 1 g) adiabatic calorimetry | 140.75 | – | –
[2], 230.97 K, Crystal 1, Small (less than 1 g) adiabatic calorimetry | 148.65 | – | –
[2], 238.26 K, Crystal 1, Small (less than 1 g) adiabatic calorimetry | 153.96 | – | –
[2], 243.92 K, Crystal 1, Small (less than 1 g) adiabatic calorimetry | 158.36 | – | –
[2], 252.96 K, Crystal 1, Small (less than 1 g) adiabatic calorimetry | 166.39 | – | –
[2], 255.1 K, Crystal 1, Small (less than 1 g) adiabatic calorimetry | 168.26 | – | –
[3], 290 K, Inclined piston gauge | – | – | 0.0253
[3], 299.97 K, Inclined piston gauge | – | – | 0.0534
[3], 310 K, Inclined piston gauge | – | – | 0.1078
[3], 319.99 K, Inclined piston gauge | – | – | 0.2047
[3], 329.98 K, Inclined piston gauge | – | – | 0.3717
[3], 339.99 K, Inclined piston gauge | – | – | 0.6472
[3], 349.98 K, Inclined piston gauge | – | – | 1.086
[3], 359.98 K, Inclined piston gauge | – | – | 1.76
[3], 362.71 K, Twin ebulliometer | – | – | 1.998
[3], 364.97 K, Inclined piston gauge | – | – | 2.214
[3], 369.18 K, Twin ebulliometer | – | – | 2.671
[3], 369.98 K, Inclined piston gauge | – | – | 2.766
[3], 378.73 K, Twin ebulliometer | – | – | 4.013
[3], 385.76 K, Twin ebulliometer | – | – | 5.332
[3], 396.37 K, Twin ebulliometer | – | – | 7.999
[3], 404.33 K, Twin ebulliometer | – | – | 10.67
[3], 410.79 K, Twin ebulliometer | – | – | 13.33
[3], 417.49 K, Twin ebulliometer | – | – | 16.67
[3], 423.06 K, Twin ebulliometer | – | – | 19.93
[3], 430.39 K, Twin ebulliometer | – | – | 25.02
[3], 437.8 K, Twin ebulliometer | – | – | 31.18
[3], 445.24 K, Twin ebulliometer | – | – | 38.56
[3], 452.74 K, Twin ebulliometer | – | – | 47.37
[3], 460.3 K, Twin ebulliometer | – | – | 57.81
[3], 467.91 K, Twin ebulliometer | – | – | 70.1
[3], 475.59 K, Twin ebulliometer | – | – | 84.53
[3], 483.32 K, Twin ebulliometer | – | – | 101.33
[3], 491.1 K, Twin ebulliometer | – | – | 120.79
[3], 498.94 K, Twin ebulliometer | – | – | 143.26
[3], 506.84 K, Twin ebulliometer | – | – | 169.03
[4], 5 K, Crystal 3 | – | 0.28 | –
[4], 10 K, Crystal 3 | – | 2.69 | –
[4], 20 K, Crystal 3 | – | 13.26 | –
[4], 30 K, Crystal 3 | – | 24.12 | –
[4], 40 K, Crystal 3 | – | 33.18 | –
[4], 50 K, Crystal 3 | – | 40.87 | –
[4], 60 K, Crystal 3 | – | 47.15 | –
[4], 70 K, Crystal 3 | – | 52.76 | –
[4], 80 K, Crystal 3 | – | 57.88 | –
[4], 90 K, Crystal 3 | – | 62.79 | –
[4], 100 K, Crystal 3 | – | 67.58 | –
[4], 120 K, Crystal 3 | – | 77.47 | –
[4], 140 K, Crystal 3 | – | 90.29 | –
[4], 146 K, Crystal 2 | – | 95.59 | –
[4], 146 K, Crystal 3 | – | 95.33 | –
[4], 160 K, Crystal 2 | – | 104.39 | –
[4], 180 K, Crystal 2 | – | 115.29 | –
[4], 194.4 K, Crystal 1 | – | 126.5 | –
[4], 194.4 K, Crystal 2 | – | 124.59 | –
[4], 200 K, Crystal 1 | – | 129.36 | –
[4], 220 K, Crystal 1 | – | 141.06 | –
[4], 240 K, Crystal 1 | – | 155.01 | –
[4], 250 K, Liquid | – | 191.22 | –
[4], 260 K, Crystal 1 | – | 171.24 | –
[4], 260 K, Liquid | – | 195.03 | –
[4], 264.38 K, Crystal 1 | – | 175.09 | –
[4], 264.38 K, Liquid | – | 196.72 | –
[4], 280 K, Liquid | – | 202.59 | –
[4], 298.15 K, Liquid | – | 209.64 | –
[4], 300 K, Liquid | – | 210.37 | –
[4], 320 K, Liquid | – | 218.52 | –
[4], 340 K, Liquid | – | 226.88 | –
[4], 360 K, Liquid | – | 235.35 | –
[4], 380 K, Liquid | – | 243.89 | –
[4], 400 K, Liquid | – | 252.39 | –
[4], 420 K, Liquid | – | 260.86 | –
[4], 440 K, Liquid | – | 269.35 | –
[4], 460 K, Liquid | – | 277.87 | –
[4], 480 K, Liquid | – | 286.36 | –
[4], 500 K, Liquid | – | 294.85 | –

[2], Liquid, Small (less than 1 g) adiabatic calorimetry
Conditions | molar heat capacity [J/K/mol]
271.21 K | 199.33
272.18 K | 199.68
272.24 K | 199.7
280.33 K | 202.71
288.36 K | 205.77
291.65 K | 207.11
303.09 K | 211.59
318.19 K | 217.77
333.27 K | 224.04
348.76 K | 230.58
364.66 K | 237.34
380.18 K | 243.96
395.44 K | 250.46
410.93 K | 257.02
426.18 K | 263.43
438.72 K | 268.69

[3]
Conditions | Triple point temperature [K] | mass density [kg/m3]
323.15 K | – | 971.8
348.15 K | – | 951.1
373.15 K | – | 930.3
398.15 K | – | 909.7
423.15 K | – | 889.1
448.15 K | – | 867.8
473.15 K | – | 846.1
Crystal 1, Adiabatic calorimetry | 264.38 | –
